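Cultured in 96-well plates, cells were exposed to test compound for 48 hours across five concentrations. GI50 marks 50% less growth.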 Activity calls are given as the source filed them. No stated cut-off is given here; in the data, active = GI50 up to about 1.1 µM and inactive = higher.
How the values were obtained:
Assay in all cases: NCI anticancer screen, dose series, 48 h
[1] = test system: A498
[2] = test system: ACHN
[3] = test system: COLO 205
[4] = test system: Hs-578T
[5] = test system: LOX IMVI
[6] = test system: MCF7
[7] = test system: MDA-MB-231
[8] = test system: MDA-MB-435
[9] = test system: NCI-H522
[10] = test system: NCI/ADR-RES
[11] = test system: PC-3
[12] = test system: RPMI-8226
[13] = test system: SN12C
[14] = test system: SW-620
[15] = test system: T47D
[16] = test system: U-251
[17] = test system: A549
[18] = test system: Malme-3M
[19] = test system: UACC-257

Measured: GI50

O=S(=O)(N=[Se](=O)(c1ccccc1)c1ccccc1)c1ccccc1
inactive: [1] > 100 µM | [2] > 100 µM | [3] > 100 µM | [4] > 100 µM | [5] > 100 µM | [6] 88.3 µM | [7] > 100 µM | [8] > 100 µM | [9] > 100 µM | [10] > 100 µM | [11] > 100 µM | [12] > 100 µM | [13] > 100 µM | [14] > 100 µM | [15] > 100 µM | [16] > 100 µM

O=C(Cc1nc2ccc(C(=O)c3ccccc3)cc2nc1O)C(=O)Nc1ccccc1[N+](=O)[O-]
inactive: [1] > 100 µM | [17] > 100 µM | [2] 67.3 µM | [4] 47.8 µM | [5] 67.9 µM | [6] 50 µM | [7] 38.1 µM | [8] 38.9 µM | [18] 80.9 µM | [9] 34.4 µM | [10] 45.1 µM | [11] 51.1 µM | [12] 34.1 µM | [13] > 100 µM | [14] 53.7 µM | [15] 54.3 µM | [16] 88.5 µM | [19] > 100 µM

COC1CCC(O)C(/C=C/[N+](=O)[O-])C1 (stereo not given)
inactive: [1] 3.99 µM | [17] 10.6 µM | [2] 15.7 µM | [3] 2.28 µM | [4] 2.99 µM | [5] 1.54 µM | [6] 2.88 µM | [7] 4.82 µM | [8] 1.65 µM | [9] 10.9 µM | [10] 15 µM | [11] 2.06 µM | [12] 1.55 µM | [13] 2.8 µM | [14] 3.33 µM | [15] 11.3 µM | [16] 2.19 µM | [19] 2.01 µM

[N-]=[N+]=NI1OC(=O)c2ccccc21
inactive: [1] > 100 µM | [17] > 100 µM | [2] 65.9 µM | [3] 48.5 µM | [4] > 100 µM | [5] 90.2 µM | [6] 93.5 µM | [7] > 100 µM | [8] 67.3 µM | [9] 17.3 µM | [10] > 100 µM | [11] > 100 µM | [12] 24 µM | [13] > 100 µM | [14] 65.3 µM | [15] > 100 µM | [16] 92.9 µM | [19] > 100 µM

O=c1c(C(c2cccnc2)c2c(O)oc3cc(O)ccc3c2=O)c(O)oc2cc(O)ccc12
inactive: [1] > 100 µM | [17] > 100 µM | [2] > 100 µM | [3] > 100 µM | [4] > 100 µM | [5] > 100 µM | [6] > 100 µM | [7] > 100 µM | [8] > 100 µM | [9] > 100 µM | [10] > 100 µM | [11] > 100 µM | [12] > 100 µM | [13] > 100 µM | [14] > 100 µM | [15] > 100 µM | [16] > 100 µM | [19] > 100 µM

O=C(O)c1c(Cl)c(Cl)c(Cl)c(Cl)c1C(=O)Nc1ccc2cn[nH]c2c1
inactive: [1] > 100 µM | [17] > 100 µM | [2] > 100 µM | [3] > 100 µM | [4] 39.7 µM | [6] 92.7 µM | [7] > 100 µM | [8] > 100 µM | [18] > 100 µM | [9] > 100 µM | [10] > 100 µM | [11] > 100 µM | [12] 37.4 µM | [13] > 100 µM | [14] > 100 µM | [15] 74.3 µM | [16] > 100 µM | [19] > 100 µM

CN(C(=O)C12C3C4C1C1C2C3C41C(=O)O)C(C)(C)C (stereo not given)
inactive: [1] > 100 µM | [17] > 100 µM | [2] > 100 µM | [3] > 100 µM | [4] > 100 µM | [5] > 100 µM | [6] > 100 µM | [7] > 100 µM | [8] > 100 µM | [9] > 100 µM | [10] > 100 µM | [11] > 100 µM | [13] > 100 µM | [14] > 100 µM | [15] > 100 µM | [16] > 100 µM | [19] > 100 µM

CC(=O)Nc1ccc2nc(-c3cccc(F)c3)cc(O)c2c1
inactive: [1] 8.85 µM | [17] 59.4 µM | [2] > 83.9 µM | [3] 11.2 µM | [4] 3.74 µM | [6] 5.5 µM | [7] 14.4 µM | [8] 1.6 µM | [18] 4 µM | [9] 1.95 µM | [10] 12.6 µM | [11] 4.83 µM | [12] 20.6 µM | [13] 15.9 µM | [14] 13.3 µM | [15] > 100 µM | [16] 2.67 µM | [19] > 100 µM

CC(C)=CCC[C@]1(C)CC[C@]2(C)C3CCC(=C(C)C)[C@@H](CCCO)[C@]3(C)CC[C@@]2(C)C1 (stereo not given in full)
inactive: [1] > 100 µM | [17] 52.6 µM | [2] 83 µM | [3] > 100 µM | [4] > 100 µM | [6] 24 µM | [7] 29.8 µM | [8] > 100 µM | [18] > 100 µM | [9] 17.8 µM | [10] > 100 µM | [11] 35.1 µM | [12] 26.5 µM | [13] 54.5 µM | [14] 53.8 µM | [15] 4.92 µM | [16] 23.6 µM | [19] 24 µM

CN1CC(c2ccccc2)C(O)(C2(c3ccccc3)CN(C)CC(c3ccccc3)C2=O)C(c2ccccc2)C1 (stereo not given)
inactive: [1] 91.2 µM | [17] > 100 µM | [2] > 100 µM | [3] 93.3 µM | [4] 23.1 µM | [5] > 100 µM | [6] > 100 µM | [7] > 100 µM | [8] > 100 µM | [9] > 100 µM | [10] > 100 µM | [11] > 100 µM | [12] > 100 µM | [13] > 100 µM | [14] > 100 µM | [15] > 100 µM | [16] > 100 µM | [19] > 100 µM

C=CC(Cl)(CBr)CCC(Br)C(C)(C)Cl (stereo not given)
inactive: [1] 14.1 µM | [17] 31.3 µM | [2] 16.5 µM | [3] 15.9 µM | [4] 35.4 µM | [6] 6.92 µM | [7] 14.5 µM | [8] 14.2 µM | [18] 18.7 µM | [9] 10.6 µM | [10] 22.1 µM | [11] 17.5 µM | [12] 7.38 µM | [13] 21.3 µM | [14] 12.6 µM | [15] 16.6 µM | [16] 14.4 µM | [19] 14.3 µM

Source: ChEMBL document CHEMBL1201862, “PubChem BioAssay data set” (2004)
